Values of other authors, collected in patent publication US20090255536A1, “Biofilm-Inhibiting Catheters and Tubings” (priority 2008, published 2009).

Legend:
[1] = system: Staphylococcus aureus; details: topical exogenous gNO at 200 ppm for extended periods of time
[2] = system: Escherichia coli; details: topical exogenous gNO at 200 ppm for extended periods of time
[3] = system: Group B Streptococcus; details: topical exogenous gNO at 200 ppm for extended periods of time
[4] = system: Candida albicans; details: topical exogenous gNO at 200 ppm for extended periods of time
[5] = system: S. aureus and P. aeruginosa; details: exogenous gNO at 200 ppm
[6] = system: Pseudomonas aeruginosa; details: topical exogenous gNO at 200 ppm for extended periods of time
[7] = system: cultured human dermal fibroblasts; details: gNO at 200 ppm for extended periods of time

SMILES: [N]=O [gNO, nitric oxide]
- growth of Staphylococcus aureus [1]: inhibited and prevented the growth
- growth of Escherichia coli [2]: inhibited and prevented the growth
- growth of Group B Streptococcus [3]: inhibited and prevented the growth
- growth of Candida albicans [4]: inhibited and prevented the growth
- time to clear nosocomial pneumonia caused by microbial pathogens [5]: about 6 hours
- growth of Pseudomonas aeruginosa [6]: inhibited and prevented the growth
- cytotoxic effects on cultured human dermal fibroblasts [7]: without any cytotoxic effects
